Source: PubChem BioAssay (NCI)
Values joined by “and” are separate entries in the source; they are usually repeats but may differ in a detail not shown here. Equal entries are not always repeated.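 Interpolation was linear, between the two tested concentrations surrounding the appropriate level; five concentrations were tested over 48 hours in 96-well plates. GI50 marks 50% less growth. TGI denotes the concentration required for complete inhibition of growth.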

Experiments:
Assay in all cases: NCI anticancer screen, dose series, 48 h
SNB-19 CNS = system: SNB-19 CNS
IGROV1 ovarian = system: IGROV1 ovarian
SK-MEL-5 melanoma = system: SK-MEL-5 melanoma
LOX IMVI melanoma = system: LOX IMVI melanoma
SN12C renal = system: SN12C renal
CCRF-CEM leukemia = system: CCRF-CEM leukemia
SF-539 CNS = system: SF-539 CNS
K-562 leukemia = system: K-562 leukemia
EKVX NSCLC = system: EKVX NSCLC
OVCAR-3 ovarian = system: OVCAR-3 ovarian

| Structure (SMILES) | TGI (SNB-19 CNS) | TGI (IGROV1 ovarian) | TGI (SK-MEL-5 melanoma) | TGI (LOX IMVI melanoma) | TGI (SN12C renal) | TGI (CCRF-CEM leukemia) | TGI (SF-539 CNS) | TGI (K-562 leukemia) | TGI (EKVX NSCLC) | TGI (OVCAR-3 ovarian) | GI50 (SK-MEL-5 melanoma) | GI50 (SF-539 CNS) | GI50 (EKVX NSCLC) | GI50 (OVCAR-3 ovarian) |
| --- | --- | --- | --- | --- | --- | --- | --- | --- | --- | --- | --- | --- | --- | --- |
| Cc1ccc(Oc2cc(C)ccc2P(=O)(O)O)cc1 | > 100 µM | > 100 µM | > 100 µM | > 100 µM | > 100 µM | > 100 µM | > 100 µM | > 100 µM | > 100 µM | > 100 µM |  |  |  |  |
| COc1ccc(N2C(=O)CSC2c2cc(OC)c(OC)c(OC)c2)cc1 (stereo not drawn) | 80.8 µM | > 100 µM | 87.2 µM | 92.9 µM | 65.9 µM | 35.1 µM | > 100 µM | > 100 µM | > 100 µM | 64.8 µM |  |  |  |  |
| CC1=C(C(=O)OC(C)C)C(c2cccc([N+](=O)[O-])c2)C(C(=O)OC(CO[N+](=O)[O-])CO[N+](=O)[O-])=C(C)N1 (stereo not drawn) | 24.6 µM | > 87.6 µM | 4.13 µM | 11 µM | > 34 µM | > 20.1 µM | 16.3 µM | > 100 µM | > 27.7 µM | > 22.1 µM |  |  |  |  |
| CCOC(=O)c1c(C)n(CCN2CCN(C)CC2)c2ccc(OC)cc12 | > 100 µM | > 100 µM | 30.8 µM | 35.1 µM | > 100 µM | 71.4 µM | 87.1 µM | 45.8 µM | > 100 µM | > 100 µM |  |  |  |  |
| O=C(O)c1cc2c(cc1CC(Cc1ccccc1)C(=O)O)CCC2 (stereo not drawn) | > 100 µM | > 100 µM | > 100 µM | > 100 µM | > 100 µM | > 100 µM | > 100 µM | > 100 µM | > 100 µM | > 100 µM |  |  |  |  |
| Nc1ncnc2c(C3OC(CO)C(O)C3O)c[nH]c12 (stereo not drawn) | 8.69 µM | 0.0637 µM and 0.0661 µM |  | 0.0274 µM and < 0.0155 µM | 0.0946 µM and 0.537 µM | 0.0988 µM and < 0.0135 µM | 0.0546 µM and 0.0374 µM | 0.116 µM and 0.0193 µM | 0.415 µM and 0.274 µM | 0.0342 µM and 0.124 µM | 18.7 nM | < 11.7 nM | < 17.1 nM | 11.6 nM |
| C=CC(=O)N1C/C(=C\c2ccc(F)cc2)C(=O)/C(=C/c2ccc(F)cc2)C1 | 3.72 µM | 1.38 µM | 3.35 µM | 0.415 µM | 0.936 µM | > 100 µM | 0.653 µM | > 100 µM | 3.88 µM | 1.19 µM |  |  |  |  |
| COc1cc2c(cc1OCc1ccccc1)NC(=O)[C@@H]1C[C@@H](O)CN1C2=O | > 100 µM | > 100 µM | > 100 µM | > 100 µM | > 100 µM | > 100 µM | > 100 µM | > 100 µM | > 100 µM | > 100 µM |  |  |  |  |
